Structures are written as SMILES. pEC50: −log10 of the molar value.

For this assay, the target named is T1, human M4 muscarinic acetylcholine receptor (Homo sapiens, UniProt P08173).
T1 construct: expressed in transfected cells
T1 sequence (P08173 1-479): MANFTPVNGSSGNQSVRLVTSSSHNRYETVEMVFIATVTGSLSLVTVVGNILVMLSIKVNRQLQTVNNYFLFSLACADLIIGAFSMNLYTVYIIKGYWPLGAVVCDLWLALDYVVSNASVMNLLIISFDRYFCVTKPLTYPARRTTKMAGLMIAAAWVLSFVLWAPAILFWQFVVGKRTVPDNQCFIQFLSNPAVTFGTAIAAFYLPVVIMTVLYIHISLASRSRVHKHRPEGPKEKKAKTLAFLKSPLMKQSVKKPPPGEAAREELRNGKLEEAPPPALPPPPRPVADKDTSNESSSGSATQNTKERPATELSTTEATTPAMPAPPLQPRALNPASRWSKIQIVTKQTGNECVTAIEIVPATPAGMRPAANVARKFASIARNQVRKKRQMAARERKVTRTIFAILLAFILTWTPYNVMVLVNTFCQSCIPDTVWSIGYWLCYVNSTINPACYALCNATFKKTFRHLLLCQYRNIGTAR
Kind of assay: human FLIPR-based M4 PAM assay (CHO-K1 cells with human M4 receptor and Gαqi5, calcium dye fluorescence, EC20 acetylcholine). The assay is classed as cell-based. The conditions noted are these: inflection point (IP) of the dose response curve, human M4 receptor/Gαqi5, acetylcholine at 20% of maximum response, read-out: M4PAM Hu IP. The method, then:
(§1) In a typical experiment the M4 muscarinic acetylcholine receptor modulating activity of the compounds of the present invention was determined in accordance with the following experimental method. CHO-K1 cells stably transfected with human M4 receptor and chimeric G-protein Gαqi5 (Coward P, et al., Analytical Biochemistry, 270:242-248 (1999)) are thawed from liquid N2 storage, resuspended in growth medium, plated in black, clear bottom 384 well plates, and incubated 16-20 hours at 37° C., 5% CO2. On the day of assay, growth medium is removed, the cells are washed 2 times with wash buffer, and cells are incubated in dye loading buffer at 37° C., 5% CO2 for ˜1 hour. Following dye loading the cell plates are placed in a FLIPR Tetra instrument and while monitoring dye fluorescence (excitation […]), 10 uL of test substance at increasing concentrations is added, and fluorescence values are recorded for 4 min. Next, 10 uL of acetylcholine is added (final concentration calculated so as to achieve 20% of the maximum acetycholine response), and the fluorescence reading is continued for 3.5 min. In some cases, a third addition of acetylcholine (final concentration calculated to achieve 70% of the maximal acetylcholine response) is performed. The resulting dose response curves are fit to a 4 parameter logistic equation and the final result is determined as the inflection point (IP) of the curve
as §1, with “CHO-K1” for “In a typical experiment the M4 muscarinic acetylcholine receptor modulating activity of the compounds of the present invention was determined in accordance with the following experimental method. CHO-K1”, “Gαqi5” for “Gαqi5 (Coward P, et al., Analytical Biochemistry, 270:242-248 (1999))”, “performed.” for “performed. The resulting dose response curves are fit to a 4 parameter logistic equation and the final result is determined as the inflection point (IP) of the curve”
With `COc1cc2ccc(-c3nc(C)ccc3-c3cnn(CC45CC6CC(CC(C6)C4)C5)c3)cc2nn1` [Example 13, 7-(3-(1-(((3r,5r,7r)-adamantan-1-yl)methyl)-1H-pyrazol-4-yl)-6-methylpyridin-2-yl)-3-methoxycinnoline], the pEC50 was 7.43.
The figure for `CC(C)(C)Cn1cc(-c2ccc(C#N)nc2-c2cnc3cccnc3c2)cn1` [Example 40, 5-[1-(2,2-dimethylpropyl)-1H-pyrazol-4-yl]-6-(1,5-naphthyridin-3-yl)pyridine-2-carbonitrile] is 6.68.
To `COc1cc2ccc(-c3nc(C)ccc3-c3cnn(CC4(F)CCCCC4)c3)cc2nn1` [Example 86, 7-(3-{1-[(1-fluorocyclohexyl)methyl]-1H-pyrazol-4-yl}-6-methylpyridin-2-yl)-3-methoxycinnoline] belongs 7.16; to `COc1cc2ccc(-c3ncccc3-c3cnn(CC4(C)CCCCC4)c3)cc2nn1` [Example 1, 3-methoxy-7-(3-{1-[(1-methylcyclohexyl)methyl]-1H-pyrazol-4-yl}pyridin-2-yl)cinnoline], 7.66.
To `CSc1cnc(-c2ccc3cccnc3c2)c(-c2cnn(CCC(C)C)c2)c1` [Example 76, 7-{3-[1-(3-methylbutyl)-1H-pyrazol-4-yl]-5-(methylsulfanyl)pyridin-2-yl}quinoline] belongs 7.20.
For the compound `COc1cc2ccc(-c3nc(C#N)ccc3-c3cnn(CC4CC4(C)C)c3)cc2nn1` (stereo not shown) [Example 102, 5-{1-[(2,2-dimethylcyclopropyl)methyl]-1H-pyrazol-4-yl}-6-(3-methoxycinnolin-7-yl)pyridine-2-carbonitrile], the pEC50 was 7.04.
To `CC(C)CCn1cc(-c2ccc(Cl)nc2-c2ccc3cccnc3c2)cn1` [Example 63, 7-{6-chloro-3-[1-(3-methylbutyl)-1H-pyrazol-4-yl]pyridin-2-yl}quinoline] belongs 7.59; to `Cc1ccc(-c2cnn(CC(C)(C)C)c2)c(-c2ccc3cccnc3c2)n1` [Example 6, 7-{3-[1-(2,2-dimethylpropyl)-1H-pyrazol-4-yl]-6-methylpyridin-2-yl}quinoline], 7.72; to `COc1cc2ccc(-c3nc(C)ccc3-c3cnn(CC4CCOC4)c3)cc2nn1` (stereo not shown) [Example 82, 3-methoxy-7-{6-methyl-3-[1-(tetrahydrofuran-3-ylmethyl)-1H-pyrazol-4-yl]pyridin-2-yl}cinnoline], 6.74.
To `Cc1ccnc(-c2ccc3cccnc3c2)c1-c1cnn(CCC(C)C)c1` [Example 50, 7-{4-methyl-3-[1-(3-methylbutyl)-1H-pyrazol-4-yl]pyridin-2-yl}quinoline] belongs 6.73; to `CC1(Cn2cc(-c3cccnc3-c3ccc4cccnc4c3)cn2)CCCCC1` [Example 94, 7-(3-{1-[(1-methylcyclohexyl)methyl]-1H-pyrazol-4-yl}pyridin-2-yl)quinoline], 7.28.
In the case of `CC1(C)CC1Cn1cc(-c2ccc(C#N)nc2-c2ccc3cccnc3c2)cn1` (stereo not shown) [Example 103, 5-{1-[(2,2-dimethylcyclopropyl)methyl]-1H-pyrazol-4-yl}-6-quinolin-7-ylpyridine-2-carbonitrile], the pEC50 is 7.35.
On to `N#CCC1(Cn2cc(-c3ccc(C#N)nc3-c3ccc4cccnc4c3)cn2)CC1` [Example 105, 5-(1-{[1-(cyanomethyl)cyclopropyl]methyl}-1H-pyrazol-4-yl)-6-quinolin-7-ylpyridine-2-carbonitrile], for which the pEC50 is 6.92.
For `N#Cc1ccc(-c2cnn(CC(F)(F)C(F)F)c2)c(-c2ccc3cccnc3c2)n1` [Example 92, 6-quinolin-7-yl-5-[1-(2,2,3,3-tetrahydropropyl)-1H-pyrazol-4-yl]pyridine-2-carbonitrile], the pEC50 was 6.88.
With `CC(C)(CCn1cc(-c2ccc(C#N)nc2-c2ccc3cccnc3c2)cn1)C(F)(F)F` [Example 91, 6-quinolin-7-yl-5-[1-(4,4,4-trifluoro-3,3-dimethylbutyl)-1H-pyrazol-4-yl]pyridine-2-carbonitrile], the pEC50 is 6.72.
To `Cc1ccc(-c2cnn(CC34CC5CC(CC(C5)C3)C4)c2)c(-c2ccc3cccnc3c2)n1` [Example 12, 7-(3-(1-(((3r,5r,7r)-adamantan-1-yl)methyl)-1H-pyrazol-4-yl)-6-methylpyridin-2-yl)quinoline] belongs 7.10; to `N#Cc1ccc(-c2cnn(CC3(C(F)F)CC3)c2)c(-c2ccc3cccnc3c2)n1` [Example 27, 5-(1-{[1-(difluoromethyl)cyclopropyl]methyl}-1H-pyrazol-4-yl)-6-quinolin-7-ylpyridine-2-carbonitrile], 7.48; to `CC1(Cn2cc(-c3ccc(C#N)nc3-c3ccc4cccnc4c3)cn2)CC1` [Example 97, 5-{1-[(1-methylcyclopropyl)methyl]-1H-pyrazol-4-yl}-6-quinolin-7-ylpyridine-2-carbonitrile], 7.06.
With `COc1cc2ccc(-c3nc(C)ccc3-c3cnn(CC4(C)CC4)c3)cc2nn1` [Example 26, 3-methoxy-7-(6-methyl-3-{1-[(1-methylcyclopropyl)methyl]-1H-pyrazol-4-yl}pyridin-2-yl)cinnoline], the pEC50 is 7.15.
For `CC(C)(C)Cn1ncc(-c2ccc(C#N)nc2-c2ccc3cccnc3c2)c1F` [Example 58, 5-[1-(2,2-dimethylpropyl)-5-fluoro-1H-pyrazol-4-yl]-6-quinolin-7-ylpyridine-2-carbonitrile], the pEC50 was 7.29.
The figure for `COc1cc2ccc(-c3nc(C)c(C)cc3-c3cnn(CC(C)(C)OC)c3)cc2nn1` [Example 35, 3-methoxy-7-{3-[1-(2-methoxy-2-methylpropyl)-1H-pyrazol-4-yl]-5,6-dimethylpyridin-2-yl}cinnoline] is 6.73; for `COc1cc2ccc(-c3nc(C(F)F)ccc3-c3cnn(CC(C)(C)F)c3)cc2nn1` [Example 115, 7-{6-(difluoromethyl)-3-[1-(2-fluoro-2-methylpropyl)-1H-pyrazol-4-yl]pyridin-2-yl}-3-methoxycinnoline] it is 6.72; for `COc1cc2ccc(-c3nc(C)ccc3-c3cnn(CC4(C(F)(F)F)CCC4)c3)cc2nn1` [Example 24, 3-methoxy-7-[6-methyl-3-(1-{[1-(trifluoromethyl)cyclobutyl]methyl}-1H-pyrazol-4-yl)pyridin-2-yl]cinnoline] it is 6.82.
To `COc1cc2ccc(-c3nc(C)ccc3-c3cnn(CC4(C)CCOC4)c3)cc2nn1` (single isomer, unassigned) [Example 99, 3-methoxy-7-(6-methyl-3-{1-[(3-methyltetrahydrofuran-3-yl)methyl]-1H-pyrazol-4-yl}pyridin-2-yl)cinnoline] belongs 6.77; to `COc1cc2ccc(-c3nc(C#N)ccc3-c3cnn(CC4(C(F)(F)F)CC4)c3)cc2nn1` [Example 45, 6-(3-methoxycinnolin-7-yl)-5-(1-{[1-(trifluoromethyl)cyclopropyl]methyl}-1H-pyrazol-4-yl)pyridine-2-carbonitrile], 7.22.
With `COc1cc2ccc(-c3nc(C)ccc3-c3cnn(CC4(C)CCOCC4)c3)cc2nn1` [Example 87, 3-methoxy-7-(6-methyl-3-{1-[(4-methyltetrahydro-2H-pyran-4-yl)methyl]-1H-pyrazol-4-yl}pyridin-2-yl)cinnoline], the pEC50 was 7.20.
As to `COc1cc2ccc(-c3nc(C)ccc3-c3cnn(CC4CCC4)c3)cc2nn1` [Example 8, 7-{3-[1-(cyclobutylmethyl)-1H-pyrazol-4-yl]-6-methylpyridin-2-yl}-3-methoxycinnoline], the pEC50 was 7.14.
To `COc1cc2ccc(-c3nc(C)ccc3-c3cnn(Cc4ccccc4)c3)cc2nn1` [Example 5, 7-[3-(1-benzyl-1H-pyrazol-4-yl)-6-methylpyridin-2-yl]-3-methoxycinnoline] belongs 7.03.

For the origin of these results see patent publication US11970479B2, “3-(1H-pyrazol-4-yl)pyridine allosteric modulators of the M4 muscarinic acetylcholine receptor” (Merck Sharp & Dohme LLC, priority 2018, dated 2024).
